Our source for the IC50 (inhibition of PLAP activity) values is PubChem BioAssay AID493139 (Sanford-Burnham Center for Chemical Genomics, 2011).

In the test the target is Alkaline phosphatase, germ cell type (Homo sapiens) (UniProt P10696). Put plainly: placental-like alkaline phosphatase activators or inhibitors – biochemical, human placental-like ALPPL2 isozyme, selectivity assay for mouse IAP activator project, SAR follow-up (AID 493139). To be noted: purified human placental-like alkaline phosphatase, enzymatic activity.

The source made the active and inactive calls. The rule behind the calls is not given here.

Sequence of Alkaline phosphatase, germ cell type (Homo sapiens) (P10696 whole entry, looked up): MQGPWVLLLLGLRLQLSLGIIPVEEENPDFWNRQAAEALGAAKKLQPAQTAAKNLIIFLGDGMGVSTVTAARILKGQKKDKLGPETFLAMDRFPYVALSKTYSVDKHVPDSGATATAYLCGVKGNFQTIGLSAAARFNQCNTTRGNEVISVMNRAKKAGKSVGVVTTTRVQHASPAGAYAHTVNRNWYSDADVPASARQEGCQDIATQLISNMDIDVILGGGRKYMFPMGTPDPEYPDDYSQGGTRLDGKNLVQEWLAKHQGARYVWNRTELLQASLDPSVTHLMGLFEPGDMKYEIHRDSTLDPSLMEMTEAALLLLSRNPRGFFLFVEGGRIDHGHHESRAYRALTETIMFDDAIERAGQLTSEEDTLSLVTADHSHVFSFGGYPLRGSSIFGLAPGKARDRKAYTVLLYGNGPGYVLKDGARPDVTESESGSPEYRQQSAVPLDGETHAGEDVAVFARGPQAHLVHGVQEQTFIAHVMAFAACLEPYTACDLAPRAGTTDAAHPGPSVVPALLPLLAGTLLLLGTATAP

Take `O=C(N/N=C/c1ccc(F)cc1)c1cc(O)c(O)c(O)c1`: the IC50 (inhibition of PLAP activity) was > 100 µM (inactive).

For the compound `O=C(O)CC(C(=O)O)N1C(=O)/C(=C/c2ccc(-c3nc4ccccc4s3)o2)SC1=S` (stereo unspecified), the IC50 (inhibition of PLAP activity) was > 100 µM (inactive).

Take `N#Cc1cccc(NC(=O)CSc2sc3c(O)cc(=O)[nH]c3c2C#N)c1`: the IC50 (inhibition of PLAP activity) was > 100 µM (inactive). For `N#Cc1c(SCC(=O)Nc2nc3ccc(Br)cc3s2)sc2c(O)cc(=O)[nH]c12` the value was > 100 µM (inactive); for `Cc1ccc(/C=C2\SC(=S)N(C3CCS(=O)(=O)C3)C2=O)o1` (stereo unspecified), > 100 µM (inactive). For `O=C(N/N=C/c1ccco1)c1cc(O)c(O)c(O)c1` the value was > 100 µM (inactive); for `O=C(N/N=C/c1ccccc1F)c1cc(O)c(O)c(O)c1`, > 100 µM (inactive). Consider `COc1ccc(OC)c(NC(=O)CSc2sc3c(O)cc(=O)[nH]c3c2C#N)c1`, for which the IC50 (inhibition of PLAP activity) is > 100 µM (inactive). The value for `O=C(CN1C(=O)/C(=C/c2ccco2)SC1=S)Nc1cccc(C(=O)O)c1` was > 100 µM (inactive); that for `CC(C(=O)NCCc1ccc(O)cc1)N1C(=O)/C(=C/c2ccco2)SC1=S` (stereo unspecified) was > 100 µM (inactive). For `CC(C(=O)Nc1ccccc1C(=O)O)N1C(=O)/C(=C\c2ccco2)SC1=S` (stereo unspecified) the value was > 100 µM (inactive). For `O=C(c1ccco1)N1CCN(S(=O)(=O)c2ccc3[nH]c(=O)oc3c2)CC1` the value was > 100 µM (inactive). Turning to `CC(C(=O)N(C)C1CCS(=O)(=O)C1)N1C(=O)/C(=C/c2ccco2)SC1=S` (stereo unspecified), the IC50 (inhibition of PLAP activity) was > 100 µM (inactive).

`CCN(CC)C(=O)CSc1sc2c(O)cc(=O)[nH]c2c1C#N`: the IC50 (inhibition of PLAP activity) is > 100 µM (inactive). For `COC(=O)NNC(=O)c1cc(OC)c(OC)c(OC)c1` the value was > 100 µM (inactive); for `COc1ccc(NC(=S)NCCC(c2ccccc2)c2ccccc2)cc1`, 40.7 µM.

For `CC(C)NC(=O)CSc1sc2c(O)cc(=O)[nH]c2c1C#N`, the IC50 (inhibition of PLAP activity) is > 100 µM (inactive). The value for `Cc1csc(NC(=O)CSc2sc3c(O)cc(=O)[nH]c3c2C#N)n1` was > 100 µM (inactive).

Regarding `CCSc1nnc(NC(=O)CSc2sc3c(O)cc(=O)[nH]c3c2C#N)s1`, the IC50 (inhibition of PLAP activity) was > 100 µM (inactive). For `COc1ccccc1CNC(=O)CCNS(=O)(=O)c1ccc2[nH]c(=O)oc2c1` the value was > 100 µM (inactive); for `CCOc1ccccc1NC(=O)CCNS(=O)(=O)c1ccc2[nH]c(=O)oc2c1`, > 100 µM (inactive); for `CCOc1cccc(NC(=O)CSc2sc3c(O)cc(=O)[nH]c3c2C#N)c1`, > 100 µM (inactive). For `COc1ccc(CNC(=O)CSc2sc3c(O)cc(=O)[nH]c3c2C#N)cc1`, the IC50 (inhibition of PLAP activity) was > 100 µM (inactive). The value for `Cc1cc(=O)oc2cc(NC(=S)NCCC(c3ccccc3)c3ccccc3)ccc12` was > 100 µM (inactive); that for `O=C(CCNS(=O)(=O)c1ccc2[nH]c(=O)oc2c1)Nc1ccccc1` was > 100 µM (inactive).

`COc1ccc(CNC(=O)CSc2sc3c(O)cc(=O)[nH]c3c2C#N)cc1OC`: the IC50 (inhibition of PLAP activity) is > 100 µM (inactive). The value for `O=C(NNC(=O)c1cc(O)c(O)c(O)c1)NC1CCCCC1` was 53.5 µM; that for `COC(=O)c1ccc(C)c(NC(=O)CSc2sc3c(O)cc(=O)[nH]c3c2C#N)c1` was > 100 µM (inactive); that for `O=[N+]([O-])c1ccc(NC(=S)NCCC(c2ccccc2)c2ccccc2)cc1` was > 100 µM (inactive). The value for `Cc1ccc(NC(=O)CCNS(=O)(=O)c2ccc3[nH]c(=O)oc3c2)cc1F` was > 100 µM (inactive); that for `O=C(CCCN1C(=O)/C(=C/c2ccco2)SC1=S)Nc1ccccc1` was > 100 µM (inactive). The value for `Cc1ccc(NC(=O)CCNS(=O)(=O)c2ccc3[nH]c(=O)oc3c2)c(C)c1` was > 100 µM (inactive); that for `COc1cccc(/C=N/NC(=O)c2cc(O)c(O)c(O)c2)c1` was > 100 µM (inactive).

On to `COc1cc(C(=O)NN=Cc2ccccn2)cc(OC)c1OC`, for which the IC50 (inhibition of PLAP activity) was 31.3 µM. Regarding `O=C(CN1C(=O)/C(=C/c2ccco2)SC1=S)Nc1ccc(O)c(C(=O)O)c1`, the IC50 (inhibition of PLAP activity) was 27 µM. The value for `CC(C)C(C(=O)NC1CCS(=O)(=O)C1)N1C(=O)/C(=C\c2ccco2)SC1=S` (stereo unspecified) was > 100 µM (inactive).

`CCN(C(=O)CN1C(=O)/C(=C\c2ccco2)SC1=S)C1CCS(=O)(=O)C1` (stereo unspecified): the IC50 (inhibition of PLAP activity) was > 100 µM (inactive). Regarding `O=C(NCCc1ccc(Cl)cc1)C1CCCN(S(=O)(=O)c2ccc3[nH]c(=O)oc3c2)C1` (stereo unspecified), the IC50 (inhibition of PLAP activity) is > 100 µM (inactive). For `Cc1ccc(Cl)cc1NC(=O)CSc1sc2c(O)cc(=O)[nH]c2c1C#N` the value was > 100 µM (inactive); for `COc1ccc(NC(=O)C(CC(C)C)NS(=O)(=O)c2ccc3[nH]c(=O)oc3c2)cc1` (stereo unspecified), > 100 µM (inactive); for `O=C(CN1C(=O)/C(=C/c2ccco2)SC1=S)N[C@@H]1CSC[C@@H]1O`, > 100 µM (inactive). The value for `COc1ccc(OC)c(NC(=O)CCNS(=O)(=O)c2ccc3[nH]c(=O)oc3c2)c1` was > 100 µM (inactive). With `O=C(N/N=C/c1ccsc1)c1cc(O)c(O)c(O)c1`, the IC50 (inhibition of PLAP activity) was > 100 µM (inactive).

`COc1cc(C(=O)NNc2nc3cc4c(cc3s2)OCO4)cc(OC)c1OC`: the IC50 (inhibition of PLAP activity) was 15.3 µM. As to `N#Cc1c(SCC(=O)Nc2ccc(C(F)(F)F)cc2)sc2c(O)cc(=O)[nH]c12`, the IC50 (inhibition of PLAP activity) is > 100 µM (inactive).

As for `COc1cccc(NC(=O)CN(C)S(=O)(=O)c2ccc3[nH]c(=O)oc3c2)c1`, the IC50 (inhibition of PLAP activity) is > 100 µM (inactive). In the case of `O=C1/C(=C/c2ccco2)SC(=S)N1C1CCS(=O)(=O)C1` (stereo unspecified), the IC50 (inhibition of PLAP activity) was 17.9 µM. The value for `COc1cc(C(=O)NNC(=S)NC(=O)c2ccc(Cl)cc2)cc(OC)c1OC` was 22 µM; that for `COc1cccc(CNC(=O)CCNS(=O)(=O)c2ccc3[nH]c(=O)oc3c2)c1` was > 100 µM (inactive). For `O=C(N/N=C/C1CC=CCC1)c1cc(O)c(O)c(O)c1` (stereo unspecified) the value was > 100 µM (inactive). With `COc1ccccc1NC(=O)CCNS(=O)(=O)c1ccc2[nH]c(=O)oc2c1`, the IC50 (inhibition of PLAP activity) is > 100 µM (inactive).

Turning to `Cc1ccc(C)c(NC(=O)CCNS(=O)(=O)c2ccc3[nH]c(=O)oc3c2)c1`, the IC50 (inhibition of PLAP activity) was > 100 µM (inactive). Regarding `COc1ccccc1NC(=O)CSc1sc2c(O)cc(=O)[nH]c2c1C#N`, the IC50 (inhibition of PLAP activity) is > 100 µM (inactive). Turning to `CCc1ccc(NC(=O)CN(C)S(=O)(=O)c2ccc3[nH]c(=O)oc3c2)cc1`, the IC50 (inhibition of PLAP activity) is > 100 µM (inactive).

As to `Cc1ccc(NC(=O)CSc2sc3c(O)cc(=O)[nH]c3c2C#N)c(F)c1`, the IC50 (inhibition of PLAP activity) was > 100 µM (inactive). The value for `CSc1cccc(NC(=O)CCNS(=O)(=O)c2ccc3[nH]c(=O)oc3c2)c1` was > 100 µM (inactive); that for `CCOc1ccc2nc(NC(=O)CN(C)S(=O)(=O)c3ccc4[nH]c(=O)oc4c3)sc2c1` was > 100 µM (inactive).

In the case of `O=C(C1CCN(S(=O)(=O)c2ccc3[nH]c(=O)oc3c2)CC1)N1CC=C(c2ccccc2)CC1`, the IC50 (inhibition of PLAP activity) is > 100 µM (inactive). On to `COc1cc(Cl)c(C)cc1NC(=O)CSc1sc2c(O)cc(=O)[nH]c2c1C#N`, for which the IC50 (inhibition of PLAP activity) was > 100 µM (inactive). For `O=C(CN1C(=O)/C(=C/c2ccco2)SC1=S)Nc1ccc(C(=O)O)cc1` the value was > 100 µM (inactive). For `CCOC(=O)N1CCN(S(=O)(=O)c2ccc3[nH]c(=O)oc3c2)CC1` the value was > 100 µM (inactive); for `O=C(N/N=C/C1CC2CCC1C2)c1cc(O)c(O)c(O)c1` (stereo unspecified), > 100 µM (inactive). On to `CCN(C(=O)C(C)N1C(=O)/C(=C/c2ccco2)SC1=S)C1CCS(=O)(=O)C1` (stereo unspecified), for which the IC50 (inhibition of PLAP activity) is > 100 µM (inactive). For `O=C(CN1C(=O)/C(=C\c2ccco2)SC1=S)Nc1ccc(O)cc1C(=O)O`, the IC50 (inhibition of PLAP activity) was > 100 µM (inactive). The value for `Cc1cc(NC(=O)CSc2sc3c(O)cc(=O)[nH]c3c2C#N)ccc1Br` was > 100 µM (inactive).

On to `COc1cc(C(=O)NNC(=O)c2n[nH]c3ccccc23)cc(OC)c1OC`, for which the IC50 (inhibition of PLAP activity) was 21.9 µM. For `FC(F)(F)c1cccc(NC(=S)NCCC(c2ccccc2)c2ccccc2)c1` the value was 63.5 µM; for `O=C(CCN1C(=O)/C(=C\c2ccco2)SC1=S)Nc1ccc(C(=O)O)c(O)c1`, > 100 µM (inactive); for `N#Cc1c(SCC(=O)Nc2ccc(Cl)cc2Cl)sc2c(O)cc(=O)[nH]c12`, > 100 µM (inactive). For `CN(C(=O)CN1C(=O)/C(=C\c2ccco2)SC1=S)C1CCS(=O)(=O)C1` (stereo unspecified), the IC50 (inhibition of PLAP activity) was > 100 µM (inactive). For `N#Cc1c(SCC(=O)Nc2cccc(F)c2)sc2c(O)cc(=O)[nH]c12` the value was > 100 µM (inactive). For `CCOc1ccccc1CNC(=O)CCNS(=O)(=O)c1ccc2[nH]c(=O)oc2c1` the value was > 100 µM (inactive); for `N#Cc1c(SCC(=O)Nc2nc3ccccc3s2)sc2c(O)cc(=O)[nH]c12`, > 100 µM (inactive); for `O=C(CN1C(=O)/C(=C\c2ccco2)SC1=S)Nc1ccc(C(=O)O)cc1`, > 100 µM (inactive). The value for `COc1cc(C(=O)NNC(=O)C2CC2)cc(OC)c1OC` was > 100 µM (inactive). `O=C(NN=Cc1cccnc1)c1cc(O)c(O)c(O)c1`: the IC50 (inhibition of PLAP activity) is > 100 µM (inactive).
